Measured values taken from US20200101108A1, “METHODS OF TREATING T CELL EXHAUSTION BY INHIBITING OR MODULATING T CELL RECEPTOR SIGNALING” (THE BOARD OF TRUSTEES OF THE LE-LAND STANDFORD JUNIOR …, priority 2017, published 2020).

Columns and labels:
Src kinases = details: cited from earlier work
Fyn = Fyn (Homo sapiens, UniProt P06241); details: cited from earlier work
HA-GD2.28z CAR T cells [1] = test: Cytokine release assay (ELISA), CAR T cells co-cultured with GD2-overexpressing nalm6 in presence of drug; details: drug present during 24 hours co-culture
HA-GD2.28z CAR T cells [2] = test: Incucyte cytotoxicity after expansion in drug and removal of drug before tumor co-culture; details: expanded in drug, drug removed 18-24 hours before 72 hours co-culture
HA-GD2.28z CAR T cells [3] = test: Cytokine release after expansion in drug and removal of drug before tumor co-culture; format: cell-based, human
CD19.28z CAR T cells = test: CAR T cell activation and degranulation (CD69/CD107a) on co-culture with Nalm6 tumor cells in presence of drug; details: nanomolar levels; 6 hours co-culture with tumor
Lck = Lck (Homo sapiens, UniProt P06239); details: cited from earlier work
Lck, sequence (P06239 whole entry, species assumed): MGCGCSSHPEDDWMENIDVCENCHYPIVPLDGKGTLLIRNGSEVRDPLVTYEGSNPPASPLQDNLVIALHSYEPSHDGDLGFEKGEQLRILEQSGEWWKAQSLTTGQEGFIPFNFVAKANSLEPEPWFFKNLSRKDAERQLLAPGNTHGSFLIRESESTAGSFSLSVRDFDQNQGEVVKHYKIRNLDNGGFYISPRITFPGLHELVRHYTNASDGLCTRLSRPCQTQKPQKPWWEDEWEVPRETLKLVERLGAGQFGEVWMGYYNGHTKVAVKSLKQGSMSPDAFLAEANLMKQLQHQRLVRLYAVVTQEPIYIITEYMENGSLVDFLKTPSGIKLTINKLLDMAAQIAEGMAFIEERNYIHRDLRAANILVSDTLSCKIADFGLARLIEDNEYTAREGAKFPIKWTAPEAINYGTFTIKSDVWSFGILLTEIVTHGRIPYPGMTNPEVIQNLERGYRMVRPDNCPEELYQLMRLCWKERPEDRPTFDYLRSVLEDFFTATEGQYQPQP

GD2.28z.FKBP CAR = test: Regulation of GD2.28z.FKBP CAR surface expression by shield-1 (FACS); format: cell-based, human; details: adding or subtracting shield-1 in culture medium
Source text: FIG. 1: Characterization of the GD2.28z.FKBP CAR. T cells were transduced with lentivirus encoding the GD2.28z.FKBP CAR on day 1 after activation and subsequently cultured with various concentrations of shield-1 in the growth medium. On day 7, CAR expression was quantified via FACS.

[4] = molecular target: CD19 (Homo sapiens (Human)) (UniProt P15391)

Fyn, sequence (P06241 whole entry, species assumed): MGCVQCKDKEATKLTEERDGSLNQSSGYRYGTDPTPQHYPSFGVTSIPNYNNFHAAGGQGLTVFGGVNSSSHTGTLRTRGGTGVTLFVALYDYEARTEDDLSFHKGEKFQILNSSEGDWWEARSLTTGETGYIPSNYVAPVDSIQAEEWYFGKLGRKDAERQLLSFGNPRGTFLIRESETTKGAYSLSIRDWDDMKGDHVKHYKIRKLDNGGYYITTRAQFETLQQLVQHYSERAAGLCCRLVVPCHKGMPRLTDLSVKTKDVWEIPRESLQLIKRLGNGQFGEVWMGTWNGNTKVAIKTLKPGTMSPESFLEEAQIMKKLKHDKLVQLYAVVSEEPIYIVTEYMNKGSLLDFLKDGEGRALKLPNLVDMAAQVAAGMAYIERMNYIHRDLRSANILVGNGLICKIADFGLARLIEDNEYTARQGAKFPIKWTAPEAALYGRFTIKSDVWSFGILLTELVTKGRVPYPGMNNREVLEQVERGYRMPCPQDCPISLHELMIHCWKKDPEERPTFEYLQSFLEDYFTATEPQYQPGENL

Cc1ccc(C(=O)Nc2ccc(CN3CCN(C)CC3)c(C(F)(F)F)c2)cc1C#Cc1cnc2cccnn12 [ponatinib, 3-(imidazo[1,2-b]pyridazin-3-ylethynyl)-4-methyl-N-(4-((4-methylpiperazin-1-yl)methyl)-3-(trifluoromethyl)phenyl)benzamide]
inhibition of Src kinases (Src kinases): does not affect the function of Fyn or Src kinases | inhibition of Fyn (Fyn): does not affect the function of Fyn or Src kinases | IFNγ secretion in response to tumor (HA-GD2.28z CAR T cells [1]): potently inhibited | IL-2 secretion in response to tumor (HA-GD2.28z CAR T cells [1]): potently inhibited | cytotoxic response (HA-GD2.28z CAR T cells [2]): more potent cytotoxic response | reversibility of the inhibitory effect on CAR T cell function (HA-GD2.28z CAR T cells [3]): reversible | CAR T cell cytokine secretion (HA-GD2.28z CAR T cells [3]; expanded in drug, drug removed 18-24 hours before 24 hours co-culture): dose-dependently augmented | activation and degranulation (CD69 and CD107a co-expression) (CD19.28z CAR T cells): potently inhibited activation and degranulation of CAR T cells in a dose-dependent manner | inhibition of Lck (Lck): can bind to and inhibit Lck

CC[C@H](C(=O)N1CCCC[C@H]1C(=O)O[C@H](CCc1ccc(OC)c(OC)c1)c1cccc(OCCN2CCOCC2)c1)c1cc(OC)c(OC)c(OC)c1 [shield-1]
CAR surface expression (GD2.28z.FKBP CAR): rapidly and dose-dependently regulated

CD19.28z CAR (FMC63 scFv)
CD69 and CD107a surface expression (FACS) after 6 h co-culture [4]: 80%
